Measurements published in the NIST ThermoML archive (doi:10.1016/j.jct.2012.01.022).

Assay: xn = mol fraction of the nth substance listed
Conditions: 101 kPa, Liquid; for speed of sound: Sing-around technique in a fixed-path interferometer; for mass density: Vibrating tube method; for viscosity: Capillary tube (Ostwald / Ubbelohde) method

NCCN [ethane-1,2-diamine] + CCCCCCCCCCO
Conditions	mass density [kg/m3]	speed of sound [m/s]	viscosity [mPa·s]
293.15 K, x1 = 0.0424	831.534	1402.1	–
293.15 K, x1 = 0.1063	834.058	1408.9	–
293.15 K, x1 = 0.1512	835.766	1414.8	–
293.15 K, x1 = 0.1995	837.56	1420.8	–
293.15 K, x1 = 0.2511	839.445	1427.1	–
293.15 K, x1 = 0.2957	841.022	1432.6	–
293.15 K, x1 = 0.3961	844.521	1445.5	–
293.15 K, x1 = 0.4929	848.18	1459.7	–
293.15 K, x1 = 0.609	853.458	1481.8	–
293.15 K, x1 = 0.6962	858.67	1504.6	–
293.15 K, x1 = 0.7975	866.833	1541.1	–
293.15 K, x1 = 0.855	872.943	1570.1	–
293.15 K, x1 = 0.9054	879.622	1602.3	–
293.15 K, x1 = 0.9591	888.704	1648.1	–
298.15 K, x1 = 0.0424	828.092	1384.9	10.96
298.15 K, x1 = 0.1063	830.545	1391.6	10.6
298.15 K, x1 = 0.1512	832.202	1397.5	10.36
298.15 K, x1 = 0.1995	833.938	1403.3	9.921
298.15 K, x1 = 0.2511	835.76	1409.5	9.382
298.15 K, x1 = 0.2957	837.289	1414.9	8.821
298.15 K, x1 = 0.3961	840.693	1427.6	7.355
298.15 K, x1 = 0.4929	844.262	1441.5	6.047
298.15 K, x1 = 0.609	849.415	1463.1	4.514
298.15 K, x1 = 0.6962	854.51	1485.4	3.644
298.15 K, x1 = 0.7975	862.525	1521.3	2.699
298.15 K, x1 = 0.855	868.535	1549.7	2.198
298.15 K, x1 = 0.9054	875.128	1581.4	1.874
298.15 K, x1 = 0.9591	884.107	1626.4	1.598
303.15 K, x1 = 0.0424	824.641	1367.8	9.008
303.15 K, x1 = 0.1063	827.029	1374.7	8.713
303.15 K, x1 = 0.1512	828.635	1380.3	8.442
303.15 K, x1 = 0.1995	830.31	1386.1	8.104
303.15 K, x1 = 0.2511	832.075	1392.1	7.658
303.15 K, x1 = 0.2957	833.56	1397.5	7.229
303.15 K, x1 = 0.3961	836.868	1409.8	6.168
303.15 K, x1 = 0.4929	840.345	1423.5	5.062
303.15 K, x1 = 0.609	845.37	1444.5	3.892
303.15 K, x1 = 0.6962	850.353	1466.5	3.107
303.15 K, x1 = 0.7975	858.212	1501.6	2.343
303.15 K, x1 = 0.855	864.125	1529.5	1.985
303.15 K, x1 = 0.9054	870.631	1560.8	1.66
303.15 K, x1 = 0.9591	879.506	1604.9	1.403
308.15 K, x1 = 0.0424	821.178	1350.9	7.295
308.15 K, x1 = 0.1063	823.508	1358	7.087
308.15 K, x1 = 0.1512	825.064	1363.4	6.852
308.15 K, x1 = 0.1995	826.684	1369.1	6.563
308.15 K, x1 = 0.2511	828.392	1375	6.202
308.15 K, x1 = 0.2957	829.829	1380.3	5.881
308.15 K, x1 = 0.3961	833.045	1392.3	5.028
308.15 K, x1 = 0.4929	836.429	1405.6	4.23
308.15 K, x1 = 0.609	841.323	1426.1	3.288
308.15 K, x1 = 0.6962	846.189	1447.5	2.661
308.15 K, x1 = 0.7975	853.898	1481.9	2.032
308.15 K, x1 = 0.855	859.714	1509.4	1.708
308.15 K, x1 = 0.9054	866.124	1540.1	1.485
308.15 K, x1 = 0.9591	874.895	1583.6	1.238
313.15 K, x1 = 0.0424	817.698	1334.2	–
313.15 K, x1 = 0.1063	819.969	1341.6	–
313.15 K, x1 = 0.1512	821.476	1346.8	–
313.15 K, x1 = 0.1995	823.045	1352.3	–
313.15 K, x1 = 0.2511	824.7	1358.1	–
313.15 K, x1 = 0.2957	826.089	1363.2	–
313.15 K, x1 = 0.3961	829.21	1375	–
313.15 K, x1 = 0.4929	832.502	1387.9	–
313.15 K, x1 = 0.609	837.271	1407.9	–
313.15 K, x1 = 0.6962	842.017	1428.6	–
313.15 K, x1 = 0.7975	849.57	1462.5	–
313.15 K, x1 = 0.855	855.287	1489.4	–
313.15 K, x1 = 0.9054	861.605	1519.8	–
313.15 K, x1 = 0.9591	870.264	1562.4	–

NCCN [ethane-1,2-diamine] + CCCCCCCCO
Conditions	mass density [kg/m3]	speed of sound [m/s]	viscosity [mPa·s]
293.15 K, x1 = 0.0595	828.135	1373.2	–
293.15 K, x1 = 0.1021	830.247	1379.6	–
293.15 K, x1 = 0.143	832.248	1386.6	–
293.15 K, x1 = 0.2012	835.047	1396.5	–
293.15 K, x1 = 0.2633	838.043	1407.3	–
293.15 K, x1 = 0.3122	839.349	1412.6	–
293.15 K, x1 = 0.4113	844.656	1433.8	–
293.15 K, x1 = 0.4919	848.413	1450.2	–
293.15 K, x1 = 0.5973	854.134	1475.6	–
293.15 K, x1 = 0.7019	861.054	1508.3	–
293.15 K, x1 = 0.7938	868.882	1546.3	–
293.15 K, x1 = 0.8436	874.136	1573.2	–
293.15 K, x1 = 0.8941	881.269	1609.4	–
293.15 K, x1 = 0.9546	889.526	1651.7	–
298.15 K, x1 = 0.0595	824.621	1356.2	–
298.15 K, x1 = 0.0596	–	–	6.934
298.15 K, x1 = 0.1021	826.683	1362.6	6.834
298.15 K, x1 = 0.143	828.632	1369.4	6.713
298.15 K, x1 = 0.2012	831.36	1379.3	6.457
298.15 K, x1 = 0.2633	834.276	1389.9	6.099
298.15 K, x1 = 0.3122	835.547	1397.8	5.734
298.15 K, x1 = 0.4113	840.743	1415.9	4.957
298.15 K, x1 = 0.4919	844.426	1432	4.251
298.15 K, x1 = 0.5973	850.038	1457.1	3.406
298.15 K, x1 = 0.7019	856.833	1489	2.707
298.15 K, x1 = 0.7938	864.539	1526.5	2.214
298.15 K, x1 = 0.8436	869.72	1551.8	1.985
298.15 K, x1 = 0.8941	876.764	1582.4	1.751
298.15 K, x1 = 0.9546	884.925	1627.9	1.54
303.15 K, x1 = 0.0595	–	1338.9	–
303.15 K, x1 = 0.0596	–	–	5.792
303.15 K, x1 = 0.1021	–	1345.7	5.694
303.15 K, x1 = 0.143	–	1352.5	5.569
303.15 K, x1 = 0.2012	–	1362.3	5.331
303.15 K, x1 = 0.2633	–	1372.1	5.041
303.15 K, x1 = 0.3122	–	1379.9	4.75
303.15 K, x1 = 0.4113	–	1398.3	4.144
303.15 K, x1 = 0.4919	–	1414	3.595
303.15 K, x1 = 0.5973	–	1438.7	2.917
303.15 K, x1 = 0.7019	–	1469.9	2.395
303.15 K, x1 = 0.7938	–	1506.3	1.956
303.15 K, x1 = 0.8436	–	1530.5	1.748
303.15 K, x1 = 0.8941	–	1559.9	1.532
303.15 K, x1 = 0.9546	–	1604.9	1.34
308.15 K, x1 = 0.0595	817.544	1322.8	–
308.15 K, x1 = 0.0596	–	–	4.848
308.15 K, x1 = 0.1021	819.514	1329	4.757
308.15 K, x1 = 0.143	821.37	1335.8	4.662
308.15 K, x1 = 0.2012	823.957	1345.5	4.461
308.15 K, x1 = 0.2633	826.723	1355.7	4.211
308.15 K, x1 = 0.3122	827.934	1360.7	3.975
308.15 K, x1 = 0.4113	832.902	1380.8	3.497
308.15 K, x1 = 0.4919	836.434	1396.4	3.054
308.15 K, x1 = 0.5973	841.825	1420.5	2.515
308.15 K, x1 = 0.7019	848.372	1451.2	2.031
308.15 K, x1 = 0.7938	855.829	1487.3	1.669
308.15 K, x1 = 0.8436	860.863	1512.4	1.5
308.15 K, x1 = 0.8941	867.723	1546.7	1.342
308.15 K, x1 = 0.9546	875.69	1586.8	1.2
313.15 K, x1 = 0.0595	813.972	1306.6	–
313.15 K, x1 = 0.1021	815.903	1313.3	–
313.15 K, x1 = 0.143	817.713	1319.7	–
313.15 K, x1 = 0.2012	820.239	1329	–
313.15 K, x1 = 0.2633	822.931	1339.1	–
313.15 K, x1 = 0.3122	824.111	1343.9	–
313.15 K, x1 = 0.4113	828.963	1363.5	–
313.15 K, x1 = 0.4919	832.42	1378.9	–
313.15 K, x1 = 0.5973	837.701	1402.6	–
313.15 K, x1 = 0.7019	844.123	1432.8	–
313.15 K, x1 = 0.7938	851.455	1468.2	–
313.15 K, x1 = 0.8436	856.411	1492.4	–
313.15 K, x1 = 0.8941	863.18	1526.1	–
313.15 K, x1 = 0.9546	871.049	1565.6	–
